Earlier results, collected in US20250041228A1, “ORAL FORMULATION OF A PYRIDINONE DERIVATE AND USE THEREOF IN PROPHYLAXIS AND/OR TREATMENT OF INTESTINAL FIBROSIS” (Dr. Falk Pharma GmbH, priority 2021, published 2025).

Target: T1, transglutaminase 2 (Homo sapiens, UniProt P21980)
T1 sequence (P21980 1-687): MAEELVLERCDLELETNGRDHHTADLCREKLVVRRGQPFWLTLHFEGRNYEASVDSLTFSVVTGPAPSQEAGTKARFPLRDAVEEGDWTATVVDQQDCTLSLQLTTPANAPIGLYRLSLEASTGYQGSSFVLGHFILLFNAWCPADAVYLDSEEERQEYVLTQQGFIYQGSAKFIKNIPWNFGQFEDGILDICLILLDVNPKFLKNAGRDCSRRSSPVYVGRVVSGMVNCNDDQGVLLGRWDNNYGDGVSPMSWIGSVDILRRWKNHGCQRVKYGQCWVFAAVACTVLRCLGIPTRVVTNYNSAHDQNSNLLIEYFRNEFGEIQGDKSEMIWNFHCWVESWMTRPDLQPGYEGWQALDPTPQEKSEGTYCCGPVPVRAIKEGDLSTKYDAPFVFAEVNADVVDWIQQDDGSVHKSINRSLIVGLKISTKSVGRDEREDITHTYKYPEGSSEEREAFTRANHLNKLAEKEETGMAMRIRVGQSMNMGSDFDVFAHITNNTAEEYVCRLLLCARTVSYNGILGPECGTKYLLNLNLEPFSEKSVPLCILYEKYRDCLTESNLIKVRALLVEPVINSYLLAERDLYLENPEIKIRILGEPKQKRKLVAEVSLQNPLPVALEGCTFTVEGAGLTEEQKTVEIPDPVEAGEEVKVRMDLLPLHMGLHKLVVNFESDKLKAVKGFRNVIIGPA
Settings: background statement, no data

- inhibitor against transglutaminase 2: effective inhibitor
Structure (SMILES): CCC(CC)CNC(=O)Cn1cccc(NC(=O)[C@H](CC/C=C/C(=O)OC)NC(=O)c2cncn2C)c1=O [Compound 1, (S,E)-methyl-7-(1-(2-(2-ethylbutylamino)-2-oxoethyl)-2-oxo-1,2-dihydro-pyridin-3-ylamino)-6-(1-methyl-1H-imidazole-5-carboxamido)-7-oxohept-2-enoate]
